# Target: T1, CCDC6-RET fusion (Homo sapiens, UniProt P07949+Q16204+Q96SW2)
# T1 construct: CCDC6 (N-terminal fusion partner from the natural gene rearrangement, Q16204); endogenous in cells; host or cells: TPC-1 (parental) papillary thyroid carcinoma cells
# Assay: Cellular RET degradation assay (AlphaLISA Surefire Ultra, TPC-1 cells)
# Assay type: cell-based
# Settings: half-maximal degradation concentration (DC50); parental TPC-1/CCDC6-RET cell line; 24 hrs compound treatment; AlphaLISA luminescence; read-out: Cell Density TPC-1/CCDC6-RET IC50
# Procedure: Cellular RET degradation compound potency was determined using the bead-based luminescent amplification assay—AlphaLISA Surefire Ultra Detection Kit (Perkin-Elmer). The CCDC6-RET fusion expressing papillary thyroid carcinoma (TPC-1) cell line was selected for screening of potential degraders: Parental (TPC-1/CCDC6-RET). Cells were plated in 384 well culture plates (Greiner Bio-One) at 10,000 cells/well in 50 ul/well DMEM (Fisher Scientific) with 2% FBS serum (Gibco). […] Low normalization wells were media only and high normalization wells were cells treated with DMSO only. Treated cell plates were placed in an incubator at 37C and 5% CO2 for 24 hrs. At 24 hrs, cell media was removed by a FELIX automated liquid hander (Analytik Jena) and 25 ul of cell lysis buffer (provided in AlphaLisa kit) was added to each well. 5 ul cell lysate were transferred into a 384-well microplate (Perkin Elmer) before addition of 2.5 ul AlphaLISA Acceptor Bead mix. The plates were sealed and kept at room temperature for 1 hr before addition of donor bead mixture. Donor bead addition was performed in the dark and incubated for >1 hr before AlphaLISA luminescence was measured on an Envision plate reader with an Alphascreen aperture at RT (excitation 680 nm, emission 615 nm). RET protein abundance (and therefore degradation) directly corresponds to luminescence intensity.
# Intensities were normalized relative to the average values from 16 wells containing media alone (blank-low) and 16 wells containing cells+DMSO (high). % Degradation for each well was determined using the standard equation, where
# DC50 (IC50) values for each compound tested are calculated by analyzing plots of % degradation versus compound concentration, and fitting to the standard 4-parameter logistic curve where,
# Top and bottom are the % degradation at infinitely large and infinitely small compound concentrations, respectively, while Halfmax is the compound concentration yielding % degradation corresponding to ½ Top-Bottom, and N is the Hill coefficient. DC50 values are calculated according to the relationship,
# Compound replicates were performed in independent assays. Maximum degradation (YMax) was defined as the maximal % degradation value from the 4-parameter logistic equation, as previously described.
# T1 sequence (Q16204+P07949 fused): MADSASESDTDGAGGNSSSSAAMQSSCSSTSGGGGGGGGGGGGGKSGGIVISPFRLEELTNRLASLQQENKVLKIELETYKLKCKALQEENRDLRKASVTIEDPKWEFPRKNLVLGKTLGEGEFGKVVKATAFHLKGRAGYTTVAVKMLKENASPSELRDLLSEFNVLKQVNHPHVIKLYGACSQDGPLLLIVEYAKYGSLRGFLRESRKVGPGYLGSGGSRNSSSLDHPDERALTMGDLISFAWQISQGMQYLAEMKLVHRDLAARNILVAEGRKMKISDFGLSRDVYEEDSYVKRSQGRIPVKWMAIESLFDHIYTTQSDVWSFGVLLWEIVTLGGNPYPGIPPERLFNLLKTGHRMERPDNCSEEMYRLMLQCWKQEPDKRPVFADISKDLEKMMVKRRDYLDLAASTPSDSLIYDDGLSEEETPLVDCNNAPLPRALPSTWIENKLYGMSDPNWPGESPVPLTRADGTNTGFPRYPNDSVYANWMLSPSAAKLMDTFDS
# T1 sequence (Q96SW2 whole entry, the tested form may be a part): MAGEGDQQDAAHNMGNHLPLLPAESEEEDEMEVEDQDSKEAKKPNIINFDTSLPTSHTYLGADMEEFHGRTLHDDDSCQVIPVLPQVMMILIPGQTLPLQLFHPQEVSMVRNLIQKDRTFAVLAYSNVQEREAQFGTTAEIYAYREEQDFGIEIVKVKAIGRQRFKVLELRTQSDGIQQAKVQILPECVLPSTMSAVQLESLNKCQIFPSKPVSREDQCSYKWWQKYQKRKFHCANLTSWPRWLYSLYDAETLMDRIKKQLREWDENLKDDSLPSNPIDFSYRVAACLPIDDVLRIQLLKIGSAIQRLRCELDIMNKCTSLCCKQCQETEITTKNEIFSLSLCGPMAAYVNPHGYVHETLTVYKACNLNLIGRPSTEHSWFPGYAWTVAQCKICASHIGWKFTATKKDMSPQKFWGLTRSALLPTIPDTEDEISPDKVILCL
row,DC50 [nM],SMILES
1,3.17,"Nc1ncnc2c1c(-c1noc(C3CC3)c1-c1ccccn1)nn2[C@H]1C[C@H](C(=O)NCCCCN2CCN(c3ccc4c(c3)CN(C3CCC(=O)NC3=O)C4=O)CC2)C1 (stereo partly drawn) [Example A2, (1r,3r)-3-{4-amino-3-[5-cyclopropyl-4-(pyridin-2-yl)-1,2-oxazol-3-yl]-1H-pyrazolo[3,4-d]pyrimidin-1-yl}-N-(4-{4-[2-(2,6-dioxopiperidin-3-yl)-1-oxo-2,3-dihydro-1H-isoindol-5-yl]piperazin-1-yl}butyl)cyclobutane-1-carboxamide]"
2,10.2,"Nc1ncnc2c1c(-c1noc(C3CC3)c1-c1ccccn1)nn2[C@H]1C[C@H](C(=O)NCCN2CCC(c3ccc4c(c3)CN(C3CCC(=O)NC3=O)C4=O)CC2)C1 (stereo partly drawn) [Example A3, (1r,3r)-3-{4-amino-3-[5-cyclopropyl-4-(pyridin-2-yl)-1,2-oxazol-3-yl]-1H-pyrazolo[3,4-d]pyrimidin-1-yl}-N-(2-{4-[2-(2,6-dioxopiperidin-3-yl)-1-oxo-2,3-dihydro-1H-isoindol-5-yl]piperidin-1-yl}ethyl)cyclobutane-1-carboxamide]"
3,6.51,"Nc1ncnc2c1c(-c1noc(C3CC3)c1-c1ccccn1)nn2[C@H]1C[C@H](C(=O)NCCCCN2CCC(c3ccc4c(c3)CN(C3CCC(=O)NC3=O)C4=O)CC2)C1 (stereo partly drawn) [Example A4, (1r,3r)-3-{4-amino-3-[5-cyclopropyl-4-(pyridin-2-yl)-1,2-oxazol-3-yl]-1H-pyrazolo[3,4-d]pyrimidin-1-yl}-N-(4-{4-[2-(2,6-dioxopiperidin-3-yl)-1-oxo-2,3-dihydro-1H-isoindol-5-yl]piperidin-1-yl}butyl) cyclobutane-1-carboxamide]"
4,9.27,"Nc1ncnc2c1c(-c1noc(C3CC3)c1-c1ccccn1)nn2[C@H]1C[C@H](C(=O)NCCCCCCN2CCC(c3ccc4c(c3)CN(C3CCC(=O)NC3=O)C4=O)CC2)C1 (stereo partly drawn) [Example A5, (1r,3r)-3-{4-amino-3-[5-cyclopropyl-4-(pyridin-2-yl)-1,2-oxazol-3-yl]-1H-pyrazolo[3,4-d]pyrimidin-1-yl}-N-(6-{4-[2-(2,6-dioxopiperidin-3-yl)-1-oxo-2,3-dihydro-1H-isoindol-5-yl]piperidin-1-yl}hexyl)cyclobutane-1-carboxamide]"
5,6.42,"Nc1ncnc2c1c(-c1noc(C3CC3)c1-c1ccccn1)nn2[C@H]1C[C@H](C(=O)NCCCCN2CCN(c3ccc4c(c3)C(=O)N(C3CCC(=O)NC3=O)C4)CC2)C1 (stereo partly drawn) [Example A6, (1r,3r)-3-{4-amino-3-[5-cyclopropyl-4-(pyridin-2-yl)-1,2-oxazol-3-yl]-1H-pyrazolo[3,4-d]pyrimidin-1-yl}-N-(4-{4-[2-(2,6-dioxopiperidin-3-yl)-3-oxo-2,3-dihydro-1H-isoindol-5-yl]piperazin-1-yl}butyl) cyclobutane-1-carboxamide]"
6,5.32,"Nc1ncnc2c1c(-c1noc(C3CC3)c1-c1ccccn1)nn2[C@H]1C[C@H](C(=O)NCCCCCCN2CCN(c3ccc4c(c3)C(=O)N(C3CCC(=O)NC3=O)C4)CC2)C1 (stereo partly drawn) [Example A7, (1r,3r)-3-{4-amino-3-[5-cyclopropyl-4-(pyridin-2-yl)-1,2-oxazol-3-yl]-1H-pyrazolo[3,4-d]pyrimidin-1-yl}-N-(6-{4-[2-(2,6-dioxopiperidin-3-yl)-3-oxo-2,3-dihydro-1H-isoindol-5-yl]piperazin-1-yl}hexyl) cyclobutane-1-carboxamide]"
7,17.4,"Nc1ncnc2c1c(-c1noc(C3CC3)c1-c1ccccn1)nn2[C@H]1C[C@H](C(=O)NCCCCN2CCC(c3ccc4c(c3)C(=O)N(C3CCC(=O)NC3=O)C4)CC2)C1 (stereo partly drawn) [Example A8, (1r,3r)-3-{4-amino-3-[5-cyclopropyl-4-(pyridin-2-yl)-1,2-oxazol-3-yl]-1H-pyrazolo[3,4-d]pyrimidin-1-yl}-N-(4-{4-[2-(2,6-dioxopiperidin-3-yl)-3-oxo-2,3-dihydro-1H-isoindol-5-yl]piperidin-1-yl}butyl)cyclobutane-1-carboxamide]"
8,22,"Nc1ncnc2c1c(-c1noc(C3CC3)c1-c1ccccn1)nn2[C@H]1C[C@H](C(=O)NCCCCCCN2CCC(c3ccc4c(c3)C(=O)N(C3CCC(=O)NC3=O)C4)CC2)C1 (stereo partly drawn) [Example A9, (1r,3r)-3-{4-amino-3-[5-cyclopropyl-4-(pyridin-2-yl)-1,2-oxazol-3-yl]-1H-pyrazolo[3,4-d]pyrimidin-1-yl}-N-(6-{4-[2-(2,6-dioxopiperidin-3-yl)-3-oxo-2,3-dihydro-1H-isoindol-5-yl]piperidin-1-yl}hexyl)cyclobutane-1-carboxamide]"
9,57.6,"Nc1ncnc2c1c(-c1noc(C3CC3)c1-c1ccccn1)nn2[C@H]1C[C@H](C(=O)NCCCCNc2ccc(C3CCC(=O)NC3=O)cc2)C1 (stereo partly drawn) [Example A11, (1r,3r)-3-{4-amino-3-[5-cyclopropyl-4-(pyridin-2-yl)-1,2-oxazol-3-yl]-1H-pyrazolo[3,4-d]pyrimidin-1-yl}-N-(4-{[4-(2,6-dioxopiperidin-3-yl)phenyl]amino}butyl) cyclobutane-1-carboxamide]"
10,1.77,"CC(C)n1nc(-c2noc(C3CC3)c2-c2cn(C3CCN(C(=O)CCCCCCN4CCN(c5ccc6c(c5)CN(C5CCC(=O)NC5=O)C6=O)CC4)CC3)cn2)c2c(N)ncnc21 (stereo not drawn) [Example A12, 3-[5-(4-{7-[4-(4-{3-[4-amino-1-(propan-2-yl)-1H-pyrazolo[3,4-d]pyrimidin-3-yl]-5-cyclopropyl-1,2-oxazol-4-yl}-1H-imidazol-1-yl)piperidin-1-yl]-7-oxoheptyl}piperazin-1-yl)-1-oxo-2,3-dihydro-1H-isoindol-2-yl]piperidine-2,6-dione]"
11,2.02,"CC(C)n1nc(-c2noc(C3CC3)c2-c2cn(C3CCN(C(=O)CCCCCCN4CCC(c5ccc6c(c5)CN(C5CCC(=O)NC5=O)C6=O)CC4)CC3)cn2)c2c(N)ncnc21 (stereo not drawn) [Example A14, 3-[5-(1-{7-[4-(4-{3-[4-amino-1-(propan-2-yl)-1H-pyrazolo[3,4-d]pyrimidin-3-yl]-5-cyclopropyl-1,2-oxazol-4-yl}-1H-imidazol-1-yl)piperidin-1-yl]-7-oxoheptyl}piperidin-4-yl)-1-oxo-2,3-dihydro-1H-isoindol-2-yl]piperidine-2,6-dionc]"
12,43.2,"CC(C)n1nc(-c2noc(C3CC3)c2-c2cn(C3CCN(C(=O)CCCCN4CCC(c5ccc6c(c5)C(=O)N(C5CCC(=O)NC5=O)C6)CC4)CC3)cn2)c2c(N)ncnc21 (stereo not drawn) [Example A17, 3-[6-(1-{5-[4-(4-{3-[4-amino-1-(propan-2-yl)-1H-pyrazolo[3,4-d]pyrimidin-3-yl]-5-cyclopropyl-1,2-oxazol-4-yl}-1H-imidazol-1-yl)piperidin-1-yl]-5-oxopentyl}piperidin-4-yl)-1-oxo-2,3-dihydro-1H-isoindol-2-yl]piperidine-2,6-dione]"
13,27.8,"CC(C)n1nc(-c2noc(C3CC3)c2C2CCN(C(=O)CCCCCCN3CCN(c4ccc5c(c4)C(=O)N(C4CCC(=O)NC4=O)C5)CC3)CC2)c2c(N)ncnc21 (stereo not drawn) [Example A19, 3-(6-{4-[7-(4-{3-[4-amino-1-(propan-2-yl)-1H-pyrazolo[3,4-d]pyrimidin-3-yl]-5-cyclopropyl-1,2-oxazol-4-yl}piperidin-1-yl)-7-oxoheptyl]piperazin-1-yl}-1-oxo-2,3-dihydro-1H-isoindol-2-yl)piperidine-2,6-dione]"
14,4.88,COC1(C(=O)N[C@@H](CCCNC(=O)CCCCCCCCNc2cccc(C3CCC(=O)NC3=O)c2)c2ccc(-n3cc(F)cn3)nc2)CCN(c2nc(C)cc(Nc3cc(C)[nH]n3)n2)CC1 (stereo partly drawn) [Example A29]
15,13.2,"COC1(C(=O)N[C@@H](CCCNC(=O)CCCCCCN2CCN(c3ccc4c(c3)CN(C3CCC(=O)NC3=O)C4=O)CC2)c2ccc(-n3cc(F)cn3)nc2)CCN(c2nc(C)cc(Nc3cc(C)[nH]n3)n2)CC1 (stereo partly drawn) [Example A34, 7-{4-[2-(2,6-dioxopiperidin-3-yl)-1-oxo-2,3-dihydro-1H-isoindol-5-yl]piperazin-1-yl}-N-[(4S)-4-[6-(4-fluoro-1H-pyrazol-1-yl)pyridin-3-yl]-4-[(4-methoxy-1-{4-methyl-6-[(5-methyl-1H-pyrazol-3-yl)amino]pyrimidin-2-yl}piperidin-4-yl)formamido]butyl] heptanamide]"

# Source: patent publication US20260232673A1, “ISOINDOLINONE GLUTARIMIDE AND PHENYL GLUTARIMIDE ANALOGS AS DEGRADERS OF RET KINASE” (Bristol-Myers Squibb Company, priority 2023, published 2026)
